2 compounds from patent US4965351A, “4-demethoxy-4-amino-anthracyclines” (Farmitalia Carlo Erba S.R.L., priority 1987, dated 1990) can be followed below.

SMILES strings stand for the structures. ≈ marks a conversion by molar mass, not a printed value. Like-named read-outs stand apart in the source and are kept apart here.

In series [1] the test system is human colon adenocarcinoma cells resistant (LoVo/DX) to doxorubicin. Briefly: Colony inhibition test after 4 h treatment, LoVo/DX (in vitro cytotoxicity). It counts as cell-based. To be noted: read-out: LoVo/DX ID50. As to the method: (§1) The glycosides are antitumor agents. The activity of a representative compound of formula (I), 4-demethoxy-4-amino-daunorubicin (Ia), has been assessed by comparing its in vitro cytotoxicity against that of daunorubicin (DNR) in human colon adenocarcinoma cells sensitive (LoVo) or resistant (LoVo/DX) to doxorubicin.
(§2) Colony inhibition test after 4 h. treatment.

In series [2] the test system is disseminated Gross leukaemia. The experiment in a line: In vivo activity against disseminated Gross leukaemia in mice, treatment i.v. on day 1 after tumor inoculum. The source says: The in vivo activities of (Ia) and DNR against disseminated Gross leukaemia in mice also determined.
Treatment i.v on day 1 after tumor inoculum
TOX represents toxic death

Series [3] has as its system human colon adenocarcinoma cells sensitive (LoVo) to doxorubicin. The experiment in a line: Colony inhibition test after 4 h treatment, LoVo (in vitro cytotoxicity). It is filed as cell-based. To be noted: read-out: LoVo ID50. As to the method:
as §1, §2

Take `CC(=O)[C@]1(O)Cc2c(O)c3c(c(O)c2[C@@H](O[C@H]2C[C@H](N)[C@H](O)[C@H](C)O2)C1)C(=O)c1c(N)cccc1C3=O` [Ia, 4-demethoxy-4-amino-daunorubicin]: the IC50 worked out at 99 µg/mL (≈ 193 µM) in series [1] and 0.7 µg/mL (≈ 1.37 µM) in series [3] (LoVo cells (doxorubicin-sensitive), 4 h treatment, colony inhibition). The T/C % worked out at 183% in series [2] (1.6 mg/Kg i.v. on day 1), 192% in series [2] (1.9 mg/Kg i.v. on day 1) and 200% in series [2] (2.29 mg/Kg i.v. on day 1). The “TOX (toxic death)” value in series [2] (1.6 mg/Kg i.v. on day 1) was 0/10; in series [2] (1.9 mg/Kg i.v. on day 1), 0/10; in series [2] (2.29 mg/Kg i.v. on day 1), 1/10.

In the case of `COc1cccc2c1C(=O)c1c(O)c3c(c(O)c1C2=O)C[C@@](O)(C(C)=O)C[C@@H]3O[C@H]1C[C@H](N)[C@H](O)[C@H](C)O1` [DNR, daunorubicin], the IC50 in series [1] stood at 1800 µg/mL (≈ 3420 µM); in series [3] (LoVo, 4 h), 50.3 µg/mL (≈ 95.4 µM). The T/C % came to 133% in series [2] (10 mg/Kg i.v. on day 1), 167% in series [2] (15 mg/Kg i.v. on day 1) and 200% in series [2] (22.5 mg/Kg i.v. on day 1). Also, the results for the “TOX (toxic death)” value in series [2] (10 mg/Kg i.v. on day 1), in series [2] (15 mg/Kg i.v. on day 1) and in series [2] (22.5 mg/Kg i.v. on day 1) were 0/10, 0/10 and 1/10, respectively.
